From patent US8530487B1 (priority 2009, dated 2013)

These molecules were tested against human TRPA1 (Homo sapiens, UniProt O75762) (assay: cell-based). Conditions: not given.
human TRPA1, sequence (O75762 whole entry): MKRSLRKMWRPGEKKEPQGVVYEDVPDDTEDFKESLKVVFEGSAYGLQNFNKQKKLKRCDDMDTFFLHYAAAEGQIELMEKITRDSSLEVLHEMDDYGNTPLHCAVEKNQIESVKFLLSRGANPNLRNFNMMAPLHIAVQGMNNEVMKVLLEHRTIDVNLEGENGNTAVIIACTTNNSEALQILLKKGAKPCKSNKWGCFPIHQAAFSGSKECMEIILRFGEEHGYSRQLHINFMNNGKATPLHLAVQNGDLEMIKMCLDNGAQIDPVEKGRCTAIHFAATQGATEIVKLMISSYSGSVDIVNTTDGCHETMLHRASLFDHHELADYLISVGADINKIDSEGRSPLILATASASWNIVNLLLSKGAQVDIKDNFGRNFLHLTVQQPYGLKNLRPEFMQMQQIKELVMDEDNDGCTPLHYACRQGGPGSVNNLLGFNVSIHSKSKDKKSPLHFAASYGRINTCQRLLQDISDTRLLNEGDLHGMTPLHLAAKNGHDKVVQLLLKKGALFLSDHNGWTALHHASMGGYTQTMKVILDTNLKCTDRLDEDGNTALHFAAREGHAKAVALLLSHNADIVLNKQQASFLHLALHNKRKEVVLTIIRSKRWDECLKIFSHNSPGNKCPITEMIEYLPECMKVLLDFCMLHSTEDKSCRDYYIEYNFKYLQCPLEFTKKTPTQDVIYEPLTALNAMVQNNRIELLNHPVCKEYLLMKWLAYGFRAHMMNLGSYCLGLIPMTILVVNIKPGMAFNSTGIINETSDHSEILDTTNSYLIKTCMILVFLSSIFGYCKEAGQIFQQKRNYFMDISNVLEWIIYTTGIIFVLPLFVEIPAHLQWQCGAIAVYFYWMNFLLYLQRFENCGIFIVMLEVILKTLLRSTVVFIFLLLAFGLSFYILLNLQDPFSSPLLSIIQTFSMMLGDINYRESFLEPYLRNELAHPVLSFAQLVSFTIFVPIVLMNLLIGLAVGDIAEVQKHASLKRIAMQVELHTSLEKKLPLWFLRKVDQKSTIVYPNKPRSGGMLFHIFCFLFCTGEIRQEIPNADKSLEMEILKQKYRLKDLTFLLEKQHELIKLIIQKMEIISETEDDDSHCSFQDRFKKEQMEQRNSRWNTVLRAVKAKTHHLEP

Row | SMILES | IC50
1 | O=C1C2=C(NC(=S)NC2c2cccnc2)c2ccccc21 (centres unmarked) [Compound 33] | 0.5 to 1 µM
2 | COc1cccc(C2NC(=O)NC3=C2C(=O)c2ccccc23)c1 (centres unmarked) [Compound 621] | 0.5 to 1 µM
3 | COc1ccccc1C1NC(=S)NC2=C1C(=O)c1ccccc12 (centres unmarked) [Compound 40] | > 1 µM
4 | N#Cc1ccc(C2NC(=S)NC3=C2C(=O)c2ccccc23)cc1 (centres unmarked) [Compound 35] | 0.5 to 1 µM

Same assay, conditions: read-out: Activity (IC50)

Row | SMILES | IC50
5 | CCOc1cccc(C2NC(=O)N(CC#N)C3=C2C(=O)c2ccccc23)c1 (centres unmarked) [Compound 601] | < 0.1 µM
6 | CCCOc1cccc(C2NC(=O)NC3=C2C(=O)c2ccccc23)c1 (centres unmarked) [Compound 407] | < 0.1 µM
7 | CN1C(=S)NC(c2ccccc2)C2=C1c1ccccc1C2=O (centres unmarked) [Compound 302] | < 0.1 µM
8 | O=C1NC2=C(C(=O)c3cc(O)ccc32)C(c2cc(O)ccc2Br)N1 (centres unmarked) [Compound 105] | > 1 µM
9 | O=C1NC2=C(C(=O)c3ccc(O)cc32)C(c2cc(O)ccc2Br)N1 (centres unmarked) [Compound 106] | > 1 µM
10 | CCOc1cccc(C2NC(=O)N(C)C3=C2C(=O)c2ccccc23)c1 (centres unmarked) [Compound 603] | < 0.1 µM
11 | CCOc1cccc(C2NC(=O)NC3=C2C(=O)c2ccccc23)c1F (centres unmarked) [Compound 409] | < 0.1 µM
12 | C=CCOc1cccc(C2NC(=O)NC3=C2C(=O)c2ccccc23)c1 (centres unmarked) [Compound 405] | < 0.1 µM
13 | COc1cccc(C2NC(=O)NC3=C2C(=O)c2ccccc23)c1Cl (centres unmarked) [Compound 428] | > 1 µM
14 | O=C1NC2=C(C(=O)c3ccccc32)C(c2cccs2)N1 (centres unmarked) [Compound 502] | > 1 µM
15 | C=CCOc1cccc(C2NC(=S)N(C)C3=C2C(=O)c2ccccc23)c1 (centres unmarked) [Compound 306] | < 0.1 µM
16 | CCOc1ccc(F)c(C2NC(=O)NC3=C2C(=O)c2ccccc23)c1F (centres unmarked) [Compound 420] | 0.1 to 0.5 µM
17 | O=C1NC2=C(C(=O)c3c(O)cccc32)C(c2cc(O)ccc2Br)N1 (centres unmarked) [Compound 104] | > 1 µM
18 | CCOc1cccc(C2NC(=O)N(Cc3ccc(F)cc3)C3=C2C(=O)c2ccccc23)c1 (centres unmarked) [Compound 607] | 0.1 to 0.5 µM
19 | CCOC(=O)CN1C(=O)NC(c2cccc(OCC)c2)C2=C1c1ccccc1C2=O (centres unmarked) [Compound 608] | < 0.1 µM
20 | CCOc1cccc(C2NC(=O)N(CC)C3=C2C(=O)c2ccccc23)c1 (centres unmarked) [Compound 604] | < 0.1 µM
21 | C=CCOc1cc(F)cc(C2NC(=O)NC3=C2C(=O)c2ccccc23)c1 (centres unmarked) [Compound 403] | < 0.1 µM
22 | CCOc1cccc(C2NC(=O)NC3=C2C(=O)c2ccccc23)n1 (centres unmarked) [Compound 504] | 0.5 to 1 µM
23 | COc1ccc(F)c(C2NC(=O)NC3=C2C(=O)c2ccccc23)c1 (centres unmarked) [Compound 432] | > 1 µM

Row | SMILES | IC50
24 | C=CCOc1cccc(C2NC(=O)NC3=C2C(=O)c2ccccc23)c1O (centres unmarked) [Compound 456] | > 1 µM
25 | CCOc1cccc(C2NC(=O)NC3=C2C(=O)c2ccccc23)c1 (centres unmarked) [Compound 602] | 0.1 to 0.5 µM
26 | O=C1NC2=C(C(=O)c3ccccc32)C(c2c(Cl)cccc2Cl)N1 (centres unmarked) [Compound 449] | > 1 µM
27 | CN1C(=S)N(C)C(c2ccccc2)C2=C1c1ccccc1C2=O (centres unmarked) [Compound 304] | > 1 µM
28 | COc1cc(OC)cc(C2NC(=O)NC3=C2C(=O)c2ccccc23)c1 (centres unmarked) [Compound 458] | > 1 µM
29 | O=C1NC2=C(C(=O)c3ccccc32)C(c2cccc(OCC3CC3)c2)N1 (centres unmarked) [Compound 422] | 0.1 to 0.5 µM
30 | CCOc1cccc(C2NC(=O)N(Cc3ccccc3)C3=C2C(=O)c2ccccc23)c1 (centres unmarked) [Compound 606] | < 0.1 µM
31 | O=C1NC2=C(C(=O)c3ccccc32)C(c2cccc(OC(F)(F)C(F)F)c2)N1 (centres unmarked) [Compound 451] | > 1 µM
32 | CCN(C(C)=O)c1cccc(C2NC(=O)NC3=C2C(=O)c2ccccc23)c1 (centres unmarked) [Compound 443] | > 1 µM
33 | COc1ccc(Br)c(C2NC(=O)NC3=C2C(=O)c2ccccc23)c1 (centres unmarked) [Compound 433] | > 1 µM
34 | C=CCC(F)c1cccc(C2NC(=O)NC3=C2C(=O)c2ccccc23)c1 (centres unmarked) [Compound 402] | < 0.1 µM
35 | O=C1NC2=C(C(=O)c3ccccc32)C(c2ccccc2O)N1 (centres unmarked) [Compound 435] | > 1 µM
36 | C=CCOc1cccc(C2NC(=O)NC3=C2C(=O)c2ccccc23)c1Cl (centres unmarked) [Compound 411] | < 0.1 µM
37 | O=C1NC2=C(C(=O)c3ccccc32)C(c2ccccc2F)N1 (centres unmarked) [Compound 447] | > 1 µM
38 | CC(C)Oc1cccc(C2NC(=O)NC3=C2C(=O)c2ccccc23)c1 (centres unmarked) [Compound 437] | > 1 µM
39 | O=C1NC2=C(C(=O)c3ccccc32)C(c2cccc(C(F)(F)F)c2)N1 (centres unmarked) [Compound 452] | > 1 µM
40 | COc1ccc(OC)c(C2NC(=O)NC3=C2C(=O)c2ccccc23)c1 (centres unmarked) [Compound 441] | > 1 µM
41 | O=C1NC2=C(C(=O)c3ccccc32)C(c2cccc3c2OCO3)N1 (centres unmarked) [Compound 439] | > 1 µM
42 | CC(F)(F)Oc1cccc(C2NC(=O)NC3=C2C(=O)c2ccccc23)c1 (centres unmarked) [Compound 450] | > 1 µM

Row | SMILES | IC50
43 | CN1C(=S)NC2=C(C(=O)c3ccccc32)C1c1ccccc1 (centres unmarked) [Compound 303] | > 1 µM
44 | C=CCOc1ccc(Cl)c(C2NC(=O)NC3=C2C(=O)c2ccccc23)c1 (centres unmarked) [Compound 415] | 0.1 to 0.5 µM
45 | COCCOc1cccc(C2NC(=O)NC3=C2C(=O)c2ccccc23)c1 (centres unmarked) [Compound 462] | 0.1 to 0.5 µM
46 | CN1C(=S)NC(c2ccccc2)C2=C1c1cccc(O)c1C2=O (centres unmarked) [Compound 313] | > 1 µM
47 | C=CCOc1cccc(C2NC(=O)NC3=C2C(=O)c2ccccc23)c1C (centres unmarked) [Compound 421] | 0.1 to 0.5 µM
48 | COc1ccc(Cl)c(C2NC(=O)NC3=C2C(=O)c2ccccc23)c1 (centres unmarked) [Compound 429] | > 1 µM
49 | CCCCOc1cccc(C2NC(=O)NC3=C2C(=O)c2ccccc23)c1 (centres unmarked) [Compound 408] | < 0.1 µM
50 | Cc1ccc2c(c1)C(=O)C1=C2NC(=O)NC1c1cc(O)ccc1Br (centres unmarked) [Compound 107] | 0.5 to 1 µM
51 | O=C1C2=C(NC(=S)NC2c2ccccc2)c2ccccc21 (centres unmarked) [Compound 301] | < 0.1 µM
52 | CN1C(=S)NC2=C(C(=O)c3ccccc32)C1c1cccc(C#N)c1 (centres unmarked) [Compound 309] | > 1 µM
53 | CCCOc1cc(F)cc(C2NC(=O)NC3=C2C(=O)c2ccccc23)c1F (centres unmarked) [Compound 404] | < 0.1 µM
54 | CN1C(=S)NC(c2cccc(C#N)c2)C2=C1c1ccccc1C2=O (centres unmarked) [Compound 308] | < 0.1 µM
55 | O=C1NC2=C(C(=O)c3ccccc32)C(c2ccccc2Cl)N1 (centres unmarked) [Compound 426] | 0.5 to 1 µM
56 | CCOc1cccc(C2NC(=O)N(CC(F)(F)F)C3=C2C(=O)c2ccccc23)c1 (centres unmarked) [Compound 605] | 0.5 to 1 µM
57 | O=C1NC2=C(C(=O)c3ccccc32)C(c2cccc(OCC3CC3)c2Cl)N1 (centres unmarked) [Compound 419] | 0.1 to 0.5 µM
58 | O=C1NC2=C(C(=O)c3c(Cl)cccc32)C(c2cc(O)ccc2Br)N1 (centres unmarked) [Compound 101] | < 0.1 µM
59 | O=C1NC2=C(C(=O)c3ccccc32)C(c2cc(O)ccc2Br)N1 (centres unmarked) [Compound 102] | 0.1 to 0.5 µM
60 | N#Cc1cccc(C2NC(=S)NC3=C2C(=O)c2ccccc23)c1 (centres unmarked) [Compound 307] | < 0.1 µM
61 | CCOc1cncc(C2NC(=O)NC3=C2C(=O)c2ccccc23)c1 (centres unmarked) [Compound 503] | > 1 µM

Further lines, results first:

Row | IC50 | SMILES
62 | > 1 µM | N#CN=C1NC2=C(C(=O)c3c(Cl)cccc32)C(c2cccc(OCC3CC3)c2)N1 (centres unmarked) [Compound 954]
63 | > 1 µM | CCOc1cccc(C2NC(=O)N(Cc3ccncc3)C3=C2C(=O)c2ccccc23)c1 (centres unmarked) [Compound 613]
64 | 0.1 to 0.5 µM | CN1C(=O)NC(c2cccc(OCC3CC3)c2)C2=C1c1ccccc1C2=O (centres unmarked) [Compound 641]
65 | > 1 µM | COc1cccc(C2NC(=O)N(CCO)C3=C2C(=O)c2ccccc23)c1 (centres unmarked) [Compound 626]
66 | < 0.1 µM | C=CCOc1cccc(C2NC(=O)NC3=C2C(=O)c2ccccc23)c1Cl (centres unmarked) [Compound 640]
67 | > 1 µM | CN1C(=NC#N)NC2=C(C(=O)c3ccccc32)C1c1cccc(OCC2CC2)c1 (centres unmarked) [Compound 952]
68 | 0.1 to 0.5 µM | CCN1C(=O)NC(c2cccc(OC(F)F)c2)C2=C1c1ccccc1C2=O (centres unmarked) [Compound 619]
69 | > 1 µM | COc1cccc(C2NC(=O)N(CCN(C)C)C3=C2C(=O)c2ccccc23)c1 (centres unmarked) [Compound 628]
70 | > 1 µM | C=CCOc1cccc(C2NC(=NC#N)NC3=C2C(=O)c2ccccc23)c1 (centres unmarked) [Compound 950]
71 | > 1 µM | CCC[S+]([O-])c1cccc(C2NC(=O)NC3=C2C(=O)c2cccnc23)c1 (centres unmarked) [Compound 910]
72 | 0.1 to 0.5 µM | C=CCN1C(=O)NC(c2cccc(OCC)c2)C2=C1c1ccccc1C2=O (centres unmarked) [Compound 614]
73 | 0.1 to 0.5 µM | C=CCOc1cccc(C2NC(=O)N(Cc3ccccn3)C3=C2C(=O)c2ccccc23)c1 (centres unmarked) [Compound 636]
74 | > 1 µM | C=CCOc1cccc(C2NC(=O)N(Cc3ccncc3)C3=C2C(=O)c2ccccc23)c1 (centres unmarked) [Compound 635]
75 | < 0.1 µM | CCCOc1ccc(F)c(C2NC(=O)N(CC#N)C3=C2C(=O)c2ccccc23)c1F (centres unmarked) [Compound 648]
76 | < 0.1 µM | C=CCOc1cccc(C2NC(=O)N(CC(=O)OCC)C3=C2C(=O)c2ccccc23)c1 (centres unmarked) [Compound 631]
77 | < 0.1 µM | N#CCN1C(=O)NC(c2cccc(OC(F)F)c2)C2=C1c1ccccc1C2=O (centres unmarked) [Compound 618]
78 | > 1 µM | C=CC(F)(F)Oc1cccc(C2NC(=O)N(Cc3ccccc3)C3=C2C(=O)c2ccccc23)c1 (centres unmarked) [Compound 649]
79 | 0.1 to 0.5 µM | COc1cccc(C2NC(=O)N(C)C3=C2C(=O)c2ccccc23)c1 (centres unmarked) [Compound 622]
80 | < 0.1 µM | C=CCOc1cccc(C2NC(=O)N(Cc3ccccc3)C3=C2C(=O)c2ccccc23)c1 (centres unmarked) [Compound 632]
81 | > 1 µM | CCCS(=O)(=O)c1cccc(C2NC(=O)NC3=C2C(=O)c2cccnc23)c1 (centres unmarked) [Compound 911]
82 | < 0.1 µM | C=CCC(F)c1cccc(C2NC(=O)NC3=C2C(=O)c2cccnc23)c1 (centres unmarked) [Compound 905]
83 | < 0.1 µM | CCCC(F)c1cccc(C2NC(=O)NC3=C2C(=O)c2cccnc23)c1 (centres unmarked) [Compound 907]
84 | < 0.1 µM | CCOc1cccc(C2NC(=O)NC3=C2C(=O)c2ccccc23)c1F (centres unmarked) [Compound 616]
85 | > 1 µM | N#CN=C1NC2=C(C(=O)c3ccccc32)C(c2cccc(C#N)c2)N1 (centres unmarked) [Compound 955]
86 | 0.1 to 0.5 µM | CCCC(=O)c1cccc(C2NC(=O)NC3=C2C(=O)c2cccnc23)c1 (centres unmarked) [Compound 909]
87 | > 1 µM | CN1C(=NC#N)NC2=C(C(=O)c3c(Cl)cccc32)C1c1cccc(OCC2CC2)c1 (centres unmarked) [Compound 953]
88 | > 1 µM | C=CCOc1cccc(C2NC(=O)NC3=C2C(=O)c2ccccc23)c1C(F)(F)F (centres unmarked) [Compound 642]
89 | > 1 µM | CCOc1cccc(C2NC(=O)N(Cc3ccccn3)C3=C2C(=O)c2ccccc23)c1 (centres unmarked) [Compound 611]
